The values that follow come from EP3318253B1, “COMPOSITIONS COMPRISING WNT INHIBITORS FOR TREATING CANCER” (Schmidt-Wolf, Ingo, priority 2010, dated 2012).

pIC50: −log10 of the molar value.

The pIC50 is the negative decadic logarithm of the IC50, by convention in mol/L.

One test deals with Wnt/beta catenin. To be noted: Gen-plus drug library, 960 compounds; cited from earlier work.
The test system of test [1] is primary myeloma cells derived from bone marrow from patients with multiple myeloma. Kind of test: Viability of myeloma primary cells from bone marrow. The test is classed as cell-based, human. The settings on record: incubated three days; preliminary data. As for the experimental part:
Bone marrow samples from patients with myeloma were taken after informed consent, single cell suspensions generated and cells ficolled. Cells were incubated with or without EA for three days and measured for viability.
(§1) • Figure 1. […] Data are shown as mean ± SD. • Figure 2. […] Data are shown as mean ± SD. • Figure 3. […] (A) Flow cytometric results. […] Finally, ECL reagent was utilized for detection. • Figure 4C. […] Finally, ECL reagent was utilized for detection. • Figure 5. Effect of EA on viability of myeloma primary cells. […] Results represent data from two separate experiments. Data are shown as mean. • Figure 6. […] (A) Tumor growth and (B) overall survival were measured. Six animals were assayed per group.
Bone marrow samples from patients with myeloma were taken after informed consent, single cell suspensions generated and cells ficolled. Cells were incubated with or without CIC for three days and measured for viability.
Bone marrow samples from patients with myeloma were taken after informed consent, single cell suspensions generated and cells ficolled. Cells were incubated with or without GF for three days and measured for viability.

A further test concerns PBL. Kind of test: Cell viability by DiOC6 staining, flow cytometry (normal control cells). To be noted: Homo sapiens, PBL, 72 h.
A further test relates to OPM-2 myeloma cells. Kind of test: Cell viability by DiOC6 staining, flow cytometry. Type of test: cell-based, human. To be noted: Homo sapiens, 72 h; OPM-2; 1x10^5 cells cultured three days, various concentrations. As for the experimental part: (§2) Experiments were performed as reported recently.
(§3) PBL derived from healthy individuals were used as controls. […] ND, not done.
(A flow cytometer gives signals particle by particle.)

Test [2] has as its system OPM-2, U266 and RPMI 8226 cells. Kind of test: Cell viability by DiOC6 staining in myeloma cell lines (mean IC50, combinations). The settings on record: Homo sapiens; mean of the IC50 results in OPM-2, U266 and RPMI 8226 cells. Type of test: cell-based, human. As for the experimental part: A mean IC50 value in myeloma cells was determined using the mean of the IC50 results determined in OPM-2, U266 and RPMI 8226 cells.
as §1
Experiments were performed as reported recently. […]

The test system of the next test is U266. Kind of test: Cell viability by DiOC6 staining, flow cytometry. Type of test: cell-based. The settings on record: Homo sapiens, U-266, 72 h, 1x10^5 cells cultured three days, various concentrations. As for the experimental part:
as §2, §3

A further test deals with SU-DHL 4. Kind of test: Cell viability by DiOC6 staining, flow cytometry. Type of test: cell-based. The settings on record: Homo sapiens. As for the experimental part: as §2, §3
The next test relates to OCI-Ly8 LAM53. Kind of test: Cell viability by DiOC6 staining, flow cytometry. The test is classed as cell-based. The settings on record: Homo sapiens. As for the experimental part: as §2, §3
The next test relates to RPMI 8226. Kind of test: Cell viability by DiOC6 staining, flow cytometry. To be noted: Homo sapiens, 72 h, 1x10^5 cells cultured three days, various concentrations. The test is classed as cell-based. As for the experimental part:
as §2, §3

For a further test, the system named is Raji. Kind of test: Cell viability by DiOC6 staining, flow cytometry. The test is classed as cell-based. The settings on record: Homo sapiens. As for the experimental part: as §2, §3
The subject of another test is primary CLL cells. The settings on record: earlier work of the group; cited from earlier work.
In another test the test system is beta catenin. Kind of test: Western blot, Wnt/beta catenin pathway in lymphoma cells. The test is classed as cell-based, human. Here is the method:
Western blot was performed as described recently^16.
as §1
Western blot was performed as described recently.
• Figure 7. […] Data are shown as mean ± SD. • Figure 8. […] Data are shown as mean ± SD. • Figure 9. Effect of CIC on the Wnt/beta catenin pathway. (A) Flow cytometric results. […] Finally, ECL reagent was utilized for detection. • Figure 10C. […] Finally, ECL reagent was utilized for detection. • Figure 11. […] (A) Tumor growth and (B) overall survival were measured. Six animals were assayed per group. HD CIC.
Background: A western blot detects proteins with antibodies after separation by electrophoresis.

Procedure for PBL: Peripheral blood mononuclear cells (PBMC) and PBL were isolated from blood samples of healthy volunteers by Ficoll density gradient centrifugation (Lymphoprep, Nycomed, Oslo, Norway).
1x10^5 Cells were cultured in 3 ml Medium in 6-well plates. […] The apoptosis assay was performed with 3'3-dihexyloxacarbocyanine iodide (DiOC6) detecting mitochondrial membrane potential in viable cells, and propidium iodide (PI) which binds to DNA in necrotic cells, measured by a fluorescence-activated cell sorter (FACS).
For FACS analysis, 500µl staining solution containing 80 nM DiOC6 in FACS buffer, consisting of deficient RPMI-medium with 0.5% bovine serum albumin (BSA), was mixed with equal volumes of the cell sample in a glass tube and incubated at 37°C for 15 min. After a washing step with PBS/BSA 1% the cells were re-suspended in 500µl PBS/BSA 1%. After addition of 5µl PI-solution (100µg/ml) the cells were analyzed by FACS. Using this assay, viable cells reveal high fluorescence intensity for DiOC6 and a low expression for PI. In contrary, apoptotic cells show a low expression for DiOC6 and also a low expression for PI (2). Finally, necrotic cells show a low expression for DiOC6 and a high expression for PI.
PBMC and PBL derived from healthy individuals were used as normal controls. 1x10^5 cells were cultured with each compound using various concentrations for three days. Then cell viability was measured by DIOC6 staining by flow cytometry. Results represent data from two to four separate experiments each.
PBMC and PBL derived from healthy individuals were used as normal controls. 1x10^5 cells were cultured with each compound using various concentrations for three days. Then cell viability was measured by DIOC6 staining by flow cytometry. Results represent data from 2 to 4 separate experiments each.
1x10^5 Cells were cultured in 3 ml Medium in 6-well plates. […] The apoptosis assay was performed with 3' 3-dihexyloxacarbocyanine iodide (DiOC6) detecting mitochondrial membrane potential in viable cells, and propidium iodide (PI) which binds to DNA in necrotic cells, measured by a fluorescence-activated cell sorter (FACS).
PBL derived from healthy individuals were used as controls. 1x10^5 cells were cultured with each compound using various concentrations for three days. Then cell viability was measured by DIOC6 staining by flow cytometry and IC 50 rates were determined. Results represent data from 2 to 4 separate experiments each.
PBMC and PBL derived from healthy individuals were used as controls. 1x10^5 cells were cultured with each compound using various concentrations for three days.

On to `Cc1cc(C2CCCCC2)n(O)c(=O)c1` [CIC, ciclopirox olamine], for which, in the test on Wnt/beta catenin, the “identified in TOPflash reporter screen” value is “Wnt/beta catenin inhibitors”. In addition, the “growth of primary myeloma cells” value in test [1] was “inhibits the growth”. In addition, the pIC50 was 5.05 in the test with PBL; 5.30 in the test with OPM-2 myeloma cells; 4.52 in test [2]; 5.22 in the test on U266; 5.15 in the test on SU-DHL 4 (SU-DHL-4, after 72 h); 5.70 in the test with OCI-Ly8 LAM53 (OCI-Ly8, LAM-53, after 72 h). Also, the negative logarithm of the IC50 (pIC50) with RPMI 8226 and in the test on Raji (after 72 h) was 5.22 each time. Moreover, in the test with primary CLL cells, the “cell death in primary CLL cells” value was “selectively induced cell death”. The “beta catenin expression in lymphoma cells” value with beta catenin is given as “down regulated”.
Consider `C=C(CC)C(=O)c1ccc(OCC(=O)O)c(Cl)c1Cl` [EA, 2-[2,3-dichloro-4-(2-methylidenebutanoyl)phenoxy] acetic acid], for which, in the test on Wnt/beta catenin, the “identified in TOPflash reporter screen” value was “Wnt/beta catenin inhibitors”. Moreover, in test [1], the “growth of primary myeloma cells” value is reported as “inhibits the growth”. The pIC50 in the test on PBL is 5.00; in the test on OPM-2 myeloma cells, 4.66; in [2], 4.52; in the test with U266 it was 4.22; in the test with SU-DHL 4 (72 h, SU-DHL 4, 1x10^5 cells cultured three days, various concentrations), 4.24; in the test with OCI-Ly8 LAM53 (72 h, OCI-Ly8 LAM53, 1x10^5 cells cultured three days, various concentrations), 4.24. Moreover, the pIC50 in the test on RPMI 8226 is 5.10; in the test on Raji (72 h, 1x10^5 cells cultured three days, various concentrations), 4.48. Also, in the test on primary CLL cells, the “cell death in primary CLL cells” value is recorded as “selectively induced cell death”. Further, in the test with beta catenin, the “beta catenin expression in lymphoma cells” value is given as “down regulated”.
